From patent US20050256034A1, “Dioxolane analogs for improved inter-cellular delivery” (priority 2000, published 2005)

Key:
Type in all cases: cell-based
[1] = tested on: CEM cells (es, hENT1); assay: Cellular uptake assay of 3H-labelled nucleoside; settings: 30 μM, 6-min time course, compared with uridine
Protocol: (§1) FIG. 1 Comparative uptake of 30 μM [^3H]-troxacitabine in CEM (Panel A) and CEM/APAC8C (Panel B) cells. [^3H]-Uridine uptake in either the presence or absence of the hENT1 inhibitor, NBMPR or 5 mM non-radioactive uridine was included for comparison as a control substrate.
(§2) Cancer Res., 56: 4187-4191.
(§3) The transport of [^3H]uridine was inhibited in the presence either of the hENT1 inhibitor, NBMPR, or excess non-radioactive uridine.

[2] = tested on: CEM/ARAC8C cells; assay: Cellular uptake assay of 3H-labelled nucleoside; settings: 30 μM, 6-min time course, compared with uridine
Protocol: as §1, §2, §3

[3] = target: T1, hENT1 (es) in DU145 cells (Homo sapiens, UniProt Q99808); assay: Cellular uptake assay of 3H-labelled nucleoside, NT inhibitor and self-competition
T1 construct: functional es-mediated transport (hENT1) in DU145 cells; endogenous in cells; host or cells: DU145 cells
T1 sequence (Q99808 1-456): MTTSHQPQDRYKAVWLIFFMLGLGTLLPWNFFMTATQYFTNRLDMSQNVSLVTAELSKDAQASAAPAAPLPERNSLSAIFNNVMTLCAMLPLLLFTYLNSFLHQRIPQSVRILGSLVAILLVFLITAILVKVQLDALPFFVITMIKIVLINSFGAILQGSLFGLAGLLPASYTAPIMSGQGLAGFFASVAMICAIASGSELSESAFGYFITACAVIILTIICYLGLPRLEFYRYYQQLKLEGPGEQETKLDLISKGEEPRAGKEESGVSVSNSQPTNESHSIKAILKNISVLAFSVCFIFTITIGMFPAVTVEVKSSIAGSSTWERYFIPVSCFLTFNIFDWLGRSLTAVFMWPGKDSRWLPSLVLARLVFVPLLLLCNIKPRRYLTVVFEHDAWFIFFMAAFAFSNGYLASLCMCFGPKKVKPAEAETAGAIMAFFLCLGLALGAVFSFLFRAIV
Protocol: FIG. 2 Comparative uptake of 10 μM [^3H]troxacitabine (0-240 min) (Panel B) and 10 μM [^3H]D-uridine (0-6 min) (Panel A) in the presence (▴) or absence ( ? ) of the hENT1 inhibitor, 100 nM NBMPP, in DU145 cells.
as §2
(FIG. 2A). In contrast, low levels of [^3H]troxacitabine were taken up and uptake was not affected by the presence of NBMPR (FIG. 2B).
DU145 cells: This experiment is designed to show whether [^3H]L-troxacitabine (10 μM) is taken up by DU145 cells and if the rate of uptake is affected by the addition of high concentrations (1 mM) of non-radioactive troxacitabine.

[4] = target: T2, recombinant hCNT1 (Homo sapiens, UniProt O00337); assay: Uptake by recombinant transporter in transiently transfected HeLa cells; settings: 10 μM, 100 μM dilazep
T2 construct: expressed in transfected cells; host or cells: HeLa cells, transient transfection with pcDNA3-hCNT1 (subcloned from pMHK2)
T2 sequence (O00337 1-649): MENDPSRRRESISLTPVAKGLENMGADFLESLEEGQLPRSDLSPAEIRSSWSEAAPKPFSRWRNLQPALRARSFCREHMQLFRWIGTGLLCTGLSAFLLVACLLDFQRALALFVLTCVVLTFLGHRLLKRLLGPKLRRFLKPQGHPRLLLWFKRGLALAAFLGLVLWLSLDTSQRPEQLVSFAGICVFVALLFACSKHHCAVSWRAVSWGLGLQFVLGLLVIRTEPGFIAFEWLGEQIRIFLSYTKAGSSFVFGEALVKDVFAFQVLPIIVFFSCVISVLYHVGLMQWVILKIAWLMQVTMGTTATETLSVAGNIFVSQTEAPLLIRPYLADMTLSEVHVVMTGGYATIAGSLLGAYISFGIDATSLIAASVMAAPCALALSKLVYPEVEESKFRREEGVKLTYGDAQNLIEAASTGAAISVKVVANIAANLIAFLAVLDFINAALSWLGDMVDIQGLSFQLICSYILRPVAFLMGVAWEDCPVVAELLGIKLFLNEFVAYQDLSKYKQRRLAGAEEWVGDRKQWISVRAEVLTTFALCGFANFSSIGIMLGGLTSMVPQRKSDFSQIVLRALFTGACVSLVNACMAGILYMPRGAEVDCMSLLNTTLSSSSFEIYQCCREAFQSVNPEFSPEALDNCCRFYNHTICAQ
Protocol: (§4) Transport assays were conducted in the presence of the equilibrative transport inhibitor, 100 μM dilazep and either in the presence ( ? ) or absence (▴) of […].sodium, and compared to HeLa cells transiently transfected with the empty vector control plasmic (▾)
(§5) Expression plasmids encoding recombinant hCNT1 and hCNT2 are prepared using conventional methods. […] The expression vectors are separately introduced into actively proliferating HeLa cells, following conventional methods. See, e.g., Fang et al (1996).
(§6) Recombinant hCNT1 and hCNT2 were separately introduced into HeLa cells by transient transfection of pcDNA3 plasmids containing the coding sequences of the relevant nucleoside transporter protein. […] Uptake of 10 μM [:H]troxacitabine was not mediated either by hCNT1 or by hCNT2.

[5] = target: T3, recombinant hCNT2 (Homo sapiens, UniProt O43868); assay: as above; settings: 10 μM, 100 μM dilazep
T3 construct: expressed in transfected cells; host or cells: HeLa cells, transient transfection with pcDNA3-hCNT2 (subcloned from pMH15)
T3 sequence (O43868 1-658): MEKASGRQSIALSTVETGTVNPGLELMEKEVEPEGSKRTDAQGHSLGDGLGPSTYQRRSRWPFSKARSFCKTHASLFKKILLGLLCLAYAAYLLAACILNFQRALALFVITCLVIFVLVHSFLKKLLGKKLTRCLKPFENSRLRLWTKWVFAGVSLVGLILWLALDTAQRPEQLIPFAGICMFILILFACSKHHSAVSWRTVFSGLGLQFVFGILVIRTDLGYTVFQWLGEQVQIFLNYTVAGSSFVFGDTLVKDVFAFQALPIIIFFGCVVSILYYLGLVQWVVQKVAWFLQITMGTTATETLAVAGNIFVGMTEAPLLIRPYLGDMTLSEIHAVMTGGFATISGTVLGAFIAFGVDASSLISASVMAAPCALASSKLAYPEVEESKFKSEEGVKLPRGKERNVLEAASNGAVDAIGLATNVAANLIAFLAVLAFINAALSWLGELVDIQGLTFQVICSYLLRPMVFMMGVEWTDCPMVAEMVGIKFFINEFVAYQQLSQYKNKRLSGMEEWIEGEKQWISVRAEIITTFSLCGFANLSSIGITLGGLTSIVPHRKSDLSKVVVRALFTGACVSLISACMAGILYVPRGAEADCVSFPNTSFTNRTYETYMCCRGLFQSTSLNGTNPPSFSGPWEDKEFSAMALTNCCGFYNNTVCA
Protocol: as §4, §5, §6

uptake of 3H-labelled nucleoside [1]: taken up to a lesser degree
uptake of 3H-labelled nucleoside [2]: taken up to a lesser degree
effect of non-radioactive troxacitabine (1 mM) on uptake ([3]; 10 μM labelled): no significant effect
effect of NBMPR on uptake ([3]; 10 μM, 0-240 min, 100 nM NBMPR): not affected
rate of uptake ([3]; 10 μM, short (0-30 s) and prolonged exposures (0-4 h)): very slow
uptake mediated by hCNT1 [4]: not mediated
uptake mediated by hCNT2 [5]: not mediated
SMILES: Nc1ccn([C@@H]2CO[C@H](CO)O2)c(=O)n1 [Troxacitabine, troxacitabine]
